Results: ChEMBL document CHEMBL3137667, “[Drug-induced liver injury; fourteenth updated edition of the bibliographic database of liver injuries and related drugs]” (Gastroenterol Clin Biol, 2004)

Legend:
[1] = Highest frequency of moderate liver toxicity observed during clinical trials, expressed as a percentage. [column '% BIOL' in source]; conditions: human
[2] = Highest frequency of acute liver toxicity observed during clinical trials, expressed as a percentage. [column '% AIGUE' in source]; conditions: human
[3] = human, serum
[4] = human, serum; remark: listed apart in the source
[5] = human
[6] = human; remark: listed apart in the source
[7] = human; remark: listed apart in the source
[8] = human, serum, 4383 h
[9] = human; remark: listed apart in the source
[10] = human; remark: listed apart in the source
[11] = human; remark: listed apart in the source
[12] = human; remark: listed apart in the source
[13] = human; remark: listed apart in the source
[14] = human; remark: listed apart in the source
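Wherever Hepatotoxicity (association with vascular disease) is given: count of indexed literature references reporting vascular liver injury in humans, e.g. peliosis hepatitis, hepatic veno-occlusive disease or Budd-Chiari syndrome.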
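Wherever Hepatotoxicity (benign tumour) is given: value is a count of indexed literature references citing a benign tumour confirmed by histopathology.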
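Wherever Hepatotoxicity (choleostasis) is given: human cholestatic liver injury, shown by histopathology or by peak ALT or AST elevation over alkaline phosphatase ratio below 2, value counts indexed literature reports.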
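Wherever Hepatotoxicity (chronic liver disease) is given: chronic liver injury confirmed by histopathology or persistently raised serum aminotransferase activity beyond 6 months, value given as the count of indexed literature references.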
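Wherever Hepatotoxicity (cirrhosis) is given: value is a count of indexed literature references reporting cirrhosis confirmed by histopathology.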
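Wherever Hepatotoxicity (cytolytic) is given: human cytolytic liver injury, shown by histopathology or by a ratio above 5 of peak ALT or AST elevation to alkaline phosphatase elevation, value counts indexed references.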
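Wherever Hepatotoxicity (granulomatous hepatitis) is given: value is a count of indexed literature references reporting granulomatous liver disease confirmed by histopathology.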
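Wherever Hepatotoxicity (malignant tumour) is given: malignant tumour confirmed by histopathology, value gives the count of indexed literature references reporting it.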
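Wherever Hepatotoxicity (severe hepatitis) is given: human clinical data: severe hepatitis, meaning potentially life-threatening liver failure or clinically observed cases, the value counts how many indexed literature references report it.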
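Wherever Hepatotoxicity (steatosis) is given: steatosis confirmed by histopathology, value is the count of indexed references.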

SMILES	Hepatotoxicity (moderate) [1] [%]	Hepatotoxicity (acute) [2] [%]	Hepatotoxicity (moderate) [3]	Hepatotoxicity (acute) [4]	Hepatotoxicity (cytolytic) [5]	Hepatotoxicity (choleostasis) [6]	Hepatotoxicity (severe hepatitis) [7]	Hepatotoxicity (chronic liver disease) [8]	Hepatotoxicity (cirrhosis) [9]	Hepatotoxicity (granulomatous hepatitis) [10]	Hepatotoxicity (association with vascular disease) [11]	Hepatotoxicity (steatosis) [12]	Hepatotoxicity (malignant tumour) [13]	Hepatotoxicity (benign tumour) [14]
Oc1ccc2[nH]cc(CCCCN3CC=C(c4ccccc4)CC3)c2c1 [ROXINDOLE]	10	0	1	0	0	0	0	0	0	0	0	0	0	0
Nc1ncnc2c1ncn2CCOCP(=O)(O)O [ADEFOVIR]	33.3	7.4	2	1	1	0	0	0	0	0	0	0	0	0
CC/C=C(\C(=O)N[C@@H]1C(=O)N2C(C(=O)OCOC(=O)C(C)(C)C)=C(COC(N)=O)CS[C@H]12)c1csc(N)n1	33.3	0	53	0	0	0	0	0	0	0	0	0	0	0
Nc1nc(/C(=C/CC(=O)O)C(=O)N[C@@H]2C(=O)N3C(C(=O)O)=CCS[C@H]23)cs1 [CEFTIBUTEN]	14.3	0	15	0	0	0	0	0	0	0	0	0	0	0
CNc1nc(N(C)C)nc(N(C)C)n1 [PENTAMETHYL MELAMINE]	31	0	1	0	0	0	0	0	0	0	0	0	0	0
CC1(C)S[C@@H]2[C@H](NC(=O)[C@H](NC(=O)N3CCNC3=O)c3ccccc3)C(=O)N2[C@H]1C(=O)O [AZLOCILLIN]	11.1	0	3	0	0	0	0	0	0	0	0	0	0	0
NCCNC(=O)c1ccc(Cl)cn1 [LAZABEMIDE]	0.3	0	1	0	0	0	0	0	0	0	0	0	0	0
COCC1=C(C(=O)OC(C)OC(=O)OC(C)C)N2C(=O)[C@@H](NC(=O)/C(=N\OC)c3csc(N)n3)[C@H]2SC1 (stereo partly drawn) [CEFPODOXIME PROXETIL]	7.1	0	13	0	0	0	0	0	0	0	0	0	0	0
[Se]	0	0	0	0	0	0	0	0	0	0	0	1	0	0
CO[C@@]1(NC(=O)C(C(=O)[O-])c2ccc(O)cc2)C(=O)N2C(C(=O)[O-])=C(CSc3nnnn3C)CO[C@@H]21.[Na+].[Na+] (stereo partly drawn) [MOXALACTAM DISODIUM]	36.5	3.3	13	1	0	1	0	0	0	0	0	0	0	0
CO[C@@]1(NC(=O)C2SC(=C(C(N)=O)C(=O)O)S2)C(=O)N2C(C(=O)O)=C(CSc3nnnn3C)CS[C@@H]21 (stereo partly drawn) [CEFOTETAN]	37.5	0	10	0	0	0	0	0	0	0	0	0	0	0
CC(=O)NCCCCCCNC(C)=O [HEXAMETHYLENEBISACETAMIDE]	0	0	0	1	1	0	0	0	0	0	0	0	0	0
